Laboratory results as given in US20150315202A1, “CHLORIN DERIVATIVE USEFUL IN PHOTODYNAMIC THERAPY AND DIAGNOSIS” (RMW CHO GROUP LIMITED, priority 2012, published 2015).

What was measured:
[1] = test system: advanced non-small cell lung cancer; assay: Clinical study with patients suffering from advanced non-small cell lung cancer; assay type: in vivo, human
Experimental: Through pathology or cytology diagnosis, 66 advanced non-small cell lung cancer patients were selected and randomly divided into two groups. Group A had 32 patients who were treated with chlorin e4 sodium. Group B had 34 patients who were treated with both chemotherapy and radiotherapy.
For group A, chlorin e4 sodium was administered at a dosage of 2 mg per kilogram of body weight, with two thirds administered by inhalation and one third administered orally. After the irradiation target(s) had been determined, an optical fibre for laser treatment purposes was guided into the lung tumor(s) via an interstitial procedure. Irradiation light intensity was 200 J/cm^2, irradiation power was 1,000 mW, and irradiation lasted for eight to ten minutes. Laser irradiation into the tumor was two to five centimeters in depth. Irradiation was either performed phase by phase (sub-paragraph treatment) based on tumor size or performed repeatedly.
For group B, for the radiotherapy, a 15 MV X-ray radiation therapy irradiation field covered primary lung tumor lesion(s) and mediastinal lymphatic drainage area, with a dosage of 65-70 Gy, administered on every first day in a week of radiotherapy. For the chemotherapy, 20 mg cisplatin was administered by intravenous application.

[2] = test system: brain cancer with metastases in the lung and lymph nodes; assay: In vivo studies Example 12: patient, oral chlorin e4 sodium plus laser and LED light; parameters: species or system human; conditions: after two courses
Experimental: A patient with brain cancer with metastases in the lung and lymph nodes, was treated successfully. […] The patient experienced occasional epileptic seizures and severe headaches. The treatment consisted of two courses. For each course, five doses of 62.5-187.5 mg chlorin e4 sodium were administered orally over the course of eight days. 24-48 hours after each oral dose of chlorin e4 sodium, the patient was treated with laser and LED light having a wavelength of 660 nm and 760 nm.

[3] = Absorption spectra of chlorin e4 sodium solutions; assay type: physicochemical; conditions: all solvents (ethanol, water, water + SDS)
Experimental: Absorption spectra were recorded using computerized spectrophotometers Hitachi 3400 (Japan) and SF-2000 (Russia). Fluorescence spectra were measured with a computerized spectrofluorimeter Perkin-Elmer MPF-44B. 10 mm wide quartz cuvettes were used for absorption and fluorescence measurements. Fluorescence was detected at a right angle to the excitation beam. The spectral bandwidth of the monochromator was 3 nm. […] The fluorescence quantum yields (ΦF) were determined using as a reference, solutions of TPPS (m-tetrakis(p-sulfonatophenyl)porphine) in ethanol. According to the literature, the most likely fluorescence quantum yield of TPPS in air-saturated water and ethanol is equal to 0.08 (K. Kalyanasundaram and M. Neumann-Spallart, Photophysical and redox properties of water soluble porphyrins in aqueous media, J. Phys. Chem., 1982, 86, 5163-5169; and A. T. Gradyushko, A. N. Sevchenko, K. N. Solovyov and M. P. Tsvirko, Energetics of photophysical processes in chlorophyll-like molecules, Photochem. Photobiol., 1970, 11, 387-400). The fluorescence of the samples was excited by the monochromatic light corresponding to the maximum of the Soret bands: 415 nm for TPPS in ethanol and 413 nm for TPPS in water, and 403 nm for chlorin e4 sodium in water and ethanol. The monochromator bandwidth was 3 nm. The fluorescence quantum yields (ΦF) were calculated using the following equation: […]

lung cancer [4] = assay: In vivo studies Example 5: patient, oral chlorin e4 sodium plus laser and LED light; parameters: species or system human; conditions: three months after one course
Experimental: (§1) A patient with lung cancer was treated successfully. The treatment consisted of one course of five doses of 62.5-187.5 mg chlorin e4 sodium administered orally over the course of eight days. 24-48 hours after each oral dose of chlorin e4 sodium, the patient was treated with laser and LED light having a wavelength of 660 nm and 760 nm.

lung cancer [5] = assay: In vivo studies Example 6: patient, oral chlorin e4 sodium plus laser and LED light; parameters: species or system human; conditions: immediately after the last of three courses
Experimental: as §1, with “consisted of three courses. For each course, five doses” for “consisted of one course of five doses”, “e4 sodium were administered orally” for “e4 sodium administered orally”

[6] = group A (32 patients): chlorin e4 sodium 2 mg/kg inhalation and oral + interstitial laser, group B (34 patients): cisplatin 20 mg iv + radiotherapy

## C=Cc1c(C)c2cc3nc(c(C)c4[nH]c(cc5nc(cc1[nH]2)C(C)=C5CC)c(C)c4C(=O)O)[C@@H](CCC(=O)O)[C@@H]3C [chlorin e4 sodium]
[1]; [6]
  One year survival rate: 93.75%
  Two years survival rate: 68.75%
[1]; group A: chlorin e4 sodium 2 mg/kg + interstitial laser, group B: cisplatin 20 mg iv + radiotherapy
  Combined complete and partial remission rate: 56.20%
[2]
  Lymph nodes (PET/CT): not yet clear
  Metabolic activity in the area of the brain tumour (PET/CT): no metabolic activity
  Response in the lungs (PET/CT): complete response
[3]
  Aggregation state from absorption spectra: mostly monomeric
Lung cancer [4]
  CT scan finding: tumour breakdown
Lung cancer [5]
  CT scan finding: complete recovery from lung cancer
